# Experimental data taken from US11857596B2, “Animal feed additive and animal feed” (priority 2018, dated 2024).
# Read-outs that look alike come from different tables or passages of the source. Residues, ends and D or L forms follow the SMILES beside them.
# Key:
# [1] = test system: Lactobacillus acidophilus AJ13778; test: Minimum inhibitory concentration, spot-on-lawn method; format: cell-based
# [2] = test system: Bacteroides fragilis JCM11019; test: as above; format: cell-based
# [3] = test system: Bifidobacterium thermophilum AJ110569; test: as above; format: cell-based
# [4] = test system: Clostridium perfringens AJ3350; test: microbe, parasite or virus in culture; format: cell-based; conditions: for MIC: Clostridium perfringens, AJ3350, read-out: Minimum inhibitory concentration; for Minimum inhibitory concentration: indicator strain Clostridium perfringens AJ3350, GAM, 37° C.
# Escherichia coli MG1665 = test: Minimum inhibitory concentration, spot-on-lawn method; format: cell-based
# [5] = test system: Lactobacillus salivarius AJ110152; test: as above; format: cell-based; conditions: for MIC: Ligilactobacillus salivarius
# [6] = test system: Salmonella enterica AJ2785; test: microbe, parasite or virus in culture; format: cell-based; conditions: for MIC: Salmonella enterica, AJ2785, read-out: Minimum inhibitory concentration
# [7] = test system: Caco-2 cells (human intestinal epithelial cells); test: Membrane strengthening experiment (TER recovery of barrier function after TNF-α); format: cell-based; conditions: for function of strengthening the barrier function (membrane-strengthening ability): result in words, FIG. 1A-1H
# [8] = Chicken growth test (body weight gain and feed conversion ratio); format: in vivo, broiler chickens; conditions: for BWG / FCR: 0-3 weeks
# [9] = test system: Enterococcus faecalis AJ110149; test: Minimum inhibitory concentration, spot-on-lawn method; format: cell-based
# [10] = Metabolome analysis of intestinal tract contents and blood; format: in vivo, chickens; conditions: in vivo
# Text: It is thus considered that coated-Phe and coated-Tyr are assimilated by intestinal bacteria in feces and rapidly metabolized in blood.
# [11] = indicator strain Lactobacillus acidophilus AJ13778, MRS, 37° C., read-out: Minimum inhibitory concentration
# [12] = indicator strain Bacteroides fragilis JCM11019, GAM, 37° C., read-out: Minimum inhibitory concentration
# [13] = indicator strain Bifidobacterium thermophilum AJ110569, GAM, 37° C., read-out: Minimum inhibitory concentration
# [14] = indicator strain Escherichia coli MG1665, LB, 37° C., read-out: Minimum inhibitory concentration
# [15] = indicator strain Lactobacillus salivarius AJ110152, MRS, 37° C., read-out: Minimum inhibitory concentration
# [16] = indicator strain Lactobacillus acidophilus AJ13778, MRS, 37° C.
# [17] = indicator strain Bacteroides fragilis JCM11019, GAM, 37° C.
# [18] = indicator strain Bifidobacterium thermophilum AJ110569, GAM, 37° C.
# [19] = material conc. 10 uM, TER barrier function recovery, 24 h
# [20] = material conc. 10 uM, comparison value with Ctr (TNFα alone), 24 h, 1.1 or more = membrane-strengthening ability
# [21] = indicator strain Escherichia coli MG1665, LB, 37° C.
# [22] = Table 3, addition 10 ppm in feed, negative control = 100
# [23] = Table 4, addition 10 ppm in feed
# [24] = Table 6, addition 10 ppm, NC = 100%, listed as PC1 (W/Avilamycin)
# [25] = Table 6, addition 10 ppm, NC = 100%, listed as PC2 (W/Avilamycin)
# [26] = indicator strain Lactobacillus salivarius AJ110152, MRS, 37° C.
# [27] = indicator strain Enterococcus faecalis AJ110149, MRS, 30° C., ND = no effect detected
# [28] = Homo sapiens, Caco-2, 24 h, read-out: Recovery ratio (%)
# [29] = material conc. 1 uM, comparison value with Ctr (TNFα alone), 24 h
# [30] = Escherichia coli, MG1665, read-out: Minimum inhibitory concentration
# [31] = indicator strain Enterococcus faecalis AJ110149, MRS, 30° C., ND = no effect detected, read-out: Minimum inhibitory concentration
# [32] = Table 4, addition 200 ppm (core material) in feed
molecule,measurement,setting,value
CN(C)[C@@H]1C(O)=C(C(N)=O)C(=O)[C@@]2(O)C(O)=C3C(=O)c4c(O)ccc(Cl)c4[C@@](C)(O)[C@H]3C[C@@H]12 [Chlortetracycline],MIC,[1]; [11],4000 µg/mL
same,MIC,[2]; [12],4000 µg/mL
same,MIC,[3]; [13],16000 µg/mL
same,MIC,[4],62 µg/mL
same,MIC,Escherichia coli MG1665; [14],50 mg/mL
same,MIC,[5]; [15],3000 µg/mL
same,MIC,[6],50 mg/mL
"COC[C@H]1O[C@@H](OC2OC[C@@H]3O[C@]4(O[C@H]3[C@H]2OC(=O)C(C)C)O[C@H](C)[C@@](O)(C(C)=O)[C@@H]2OCO[C@H]24)[C@@H](OC)[C@@H](O)[C@@H]1O[C@@H]1O[C@H](C)[C@H](OC)[C@H](O[C@H]2C[C@@]3(C)OC4(C[C@@H](O)[C@H](O[C@H]5C[C@@H](O)[C@H](OC(=O)c6c(C)c(Cl)c(O)c(Cl)c6OC)[C@@H](C)O5)[C@@H](C)O4)O[C@@H]3[C@@H](C)O2)[C@H]1O (stereo partly drawn) [Avilamycin, avilamycin]",Minimum inhibitory concentration,[1]; [16],16 mg/mL
same,Minimum inhibitory concentration,[2]; [17],8 mg/mL
same,Minimum inhibitory concentration,[3]; [18],16 mg/mL
same,Minimum inhibitory concentration,[4],1 mg/mL
same,Recovery ratio (%),[7]; [19],127%
same,Recovery ratio/ctr,[7]; [20],1.10
same,function of strengthening the barrier function (membrane-strengthening ability),[7],had a function of strengthening the barrier function even at a low concentration
same,Minimum inhibitory concentration,Escherichia coli MG1665; [21],>100 mg/mL
same,BWG,[8]; [22],110%
same,FCR,[8]; [22],96%
same,BWG,[8]; [23],107%
same,FCR,[8]; [23],95%
same,BWG,[8]; [24],104%
same,FCR,[8]; [24],97%
same,BWG,[8]; [25],107%
same,FCR,[8]; [25],94%
same,Minimum inhibitory concentration,[5]; [26],8 mg/mL
same,Minimum inhibitory concentration,[6],>100 mg/mL
same,Minimum inhibitory concentration,[9]; [27],2 mg/mL
"COc1cc(/C=C/C(=O)CC(=O)/C=C/c2ccc(O)c(OC)c2)ccc1O [Curcumin, curcumin]",activity at 200 µM,"[7]; Homo sapiens, Caco-2, material conc. 200 uM, TER barrier function recovery, 24 h, read-out: Recovery ratio (%)",128%
same,Recovery ratio/ctr,"[7]; material conc. 200 uM, comparison value with Ctr (TNFα alone), 24 h",1.14
"O=C(O)C(O)Cc1ccccc1 (stereo not drawn) [Phenyl-lactate, phenyl lactatic acid]",Recovery ratio (%),"[7]; material conc. 0.2 mM, TER barrier function recovery, 24 h",129%
same,Recovery ratio/ctr,"[7]; material conc. 0.2 mM, comparison value with Ctr (TNFα alone), 24 h",1.12
"CC(C)[C@H](N)C(=O)O [Valine, valine]",Recovery ratio/ctr,"[7]; 24 h, 200 µM",1.13
same,activity at 200 µM,"[7]; Homo sapiens, Caco-2, material conc. 0.2 mM, TER barrier function recovery, 24 h, read-out: Recovery ratio (%)",130%
Zinc Bacitracin,Recovery ratio (%),[7]; [19],124%
same,Recovery ratio/ctr,[7]; [20],1.10
"N[C@@H](Cc1c[nH]c2ccccc12)C(=O)O [Tryptophan, tryptophan]",activity at 4000 µM,[7]; [28],128%
same,Recovery ratio/ctr,"[7]; material conc. 4 mM, comparison value with Ctr (TNFα alone), 24 h",1.11
CC[C@@H](C(=O)[C@@H](C)[C@@H](O)[C@H](C)[C@@H]1O[C@@H]([C@@H](CC)C(=O)O)CC[C@@H]1C)[C@H]1O[C@]2(C=C[C@@H](O)[C@]3(CC[C@@](C)([C@H]4CC[C@](O)(CC)[C@H](C)O4)O3)O2)[C@H](C)C[C@@H]1C [Salinomycin],MIC,"[1]; Lactobacillus acidophilus, AJ13778, read-out: Minimum inhibitory concentration",2000 µg/mL
same,MIC,"[2]; Bacteroides fragilis, JCM11019, read-out: Minimum inhibitory concentration",64000 µg/mL
same,MIC,"[3]; Bifidobacterium thermophilum, AJ110569, read-out: Minimum inhibitory concentration",2000 µg/mL
same,MIC,[4],1000 µg/mL
same,activity at 1 µM,[7]; [28],124%
same,Recovery ratio/ctr,[7]; [29],1.10
same,MIC,Escherichia coli MG1665; [30],> 100 mg/mL
same,MIC,"[5]; AJ110152, read-out: Minimum inhibitory concentration",1000 µg/mL
same,MIC,[6],> 100 mg/mL
same,MIC,"[9]; Enterococcus faecalis, AJ110149, read-out: Minimum inhibitory concentration",500 µg/mL
"NC(=O)CC[C@H](N)C(=O)O [Glutamine, glutamine]",activity at 20000 µM,"[7]; Homo sapiens, Caco-2, material conc. 20 mM, TER barrier function recovery, 24 h, read-out: Recovery ratio (%)",136%
same,Recovery ratio/ctr,"[7]; material conc. 20 mM, comparison value with Ctr (TNFα alone), 24 h",1.18
CC[C@@]1([C@@H]2O[C@@H]([C@H]3O[C@@](O)(CO)[C@H](C)C[C@@H]3C)C[C@@H]2C)CC[C@H]([C@]2(C)CC[C@]3(C[C@H](O)[C@@H](C)[C@@H]([C@@H](C)[C@@H](OC)[C@H](C)C(=O)O)O3)O2)O1 [Monensin],MIC,[1]; [11],2000 µg/mL
same,MIC,[3]; [13],2000 µg/mL
same,MIC,[4],1000 µg/mL
same,activity at 1 µM,"[7]; Homo sapiens, Caco-2, material conc. 1 uM, TER barrier function recovery, 24 h, read-out: Recovery ratio (%)",126%
same,Recovery ratio/ctr,[7]; [29],1.13
same,MIC,Escherichia coli MG1665; [30],> 100 mg/mL
same,MIC,[5]; [15],1000 µg/mL
same,MIC,[6],> 100 mg/mL
same,MIC,[9]; [31],2000 µg/mL
"N[C@@H](Cc1ccccc1)C(=O)O [Phe, phenylalanine]",detection in the intestinal tract contents or blood,[10],not detected
same,BWG,[8]; [32],106%
same,FCR,[8]; [32],98%
same,body weight gain effect and feed conversion ratio improvement effect,"[8]; result in words, healthy broilers, 0 to 21 days of age",A certain degree of body weight gain effect was confirmed
"CC[C@H](C)[C@H](N)C1=N[C@H](C(=O)N[C@@H](CC(C)C)C(=O)N[C@H](CCC(=O)O)C(=O)N[C@H](C(=O)N[C@H]2CCCCNC(=O)[C@H](CC(N)=O)NC(=O)[C@@H](CC(=O)O)NC(=O)[C@H](Cc3cnc[nH]3)NC(=O)[C@@H](Cc3ccccc3)NC(=O)[C@H]([C@@H](C)CC)NC(=O)[C@@H](CCCN)NC2=O)[C@@H](C)CC)CS1 [Bacitracin] (HELM PEPTIDE1{[CC[C@H](C)[C@H](N)C1=N[C@H](C(=O)[*:2])CS1].L.[dE].I.K.[NCCC[C@@H](N[*:1])C(=O)[*:2]].I.[dF].H.[dD].N}$PEPTIDE1,PEPTIDE1,5:R3-11:R2$$$V2.0)",MIC,[1]; [11],32000 µg/mL
same,MIC,[2]; [12],> 100000 µg/mL
same,MIC,[3]; [13],4000 µg/mL
same,MIC,Escherichia coli MG1665; [30],> 100 mg/mL
same,MIC,[5]; [15],32000 µg/mL
same,MIC,[6],> 100 mg/mL
"CCCC(=O)O [Butylate, butyric acid]",activity at 2000 µM,"[7]; Homo sapiens, Caco-2, material conc. 2.0 mM, TER barrier function recovery, 24 h, read-out: Recovery ratio (%)",131%
same,Recovery ratio/ctr,"[7]; material conc. 2.0 mM, comparison value with Ctr (TNFα alone), 24 h",1.13
Colistin,Minimum inhibitory concentration,[1]; [16],>100 mg/mL
same,Minimum inhibitory concentration,[2]; [17],>100 mg/mL
same,Minimum inhibitory concentration,[3]; [18],128 mg/mL
same,Minimum inhibitory concentration,[4],>100 mg/mL
same,Recovery ratio (%),"[7]; material conc. 1 uM, TER barrier function recovery, 24 h",130%
same,Recovery ratio/ctr,[7]; [29],1.13
same,function of strengthening the barrier function (membrane-strengthening ability),[7],had a function of strengthening the barrier function even at a low concentration
same,Minimum inhibitory concentration,Escherichia coli MG1665; [21],4 mg/mL
same,Minimum inhibitory concentration,[5]; [26],>100 mg/mL
same,Minimum inhibitory concentration,[6],>100 mg/mL
same,Minimum inhibitory concentration,[9]; [27],>100 mg/mL
CC[C@H]1OC(=O)C[C@@H](O)[C@H](C)[C@@H](O[C@@H]2O[C@H](C)[C@@H](O[C@H]3C[C@@](C)(O)[C@@H](O)[C@H](C)O3)[C@H](N(C)C)[C@H]2O)[C@@H](CC=O)C[C@@H](C)C(=O)/C=C/C(C)=C/[C@@H]1CO[C@@H]1O[C@H](C)[C@@H](O)[C@@H](OC)[C@H]1OC [Tylosin],MIC,[1]; [11],1000 µg/mL
same,MIC,[2]; [12],4000 µg/mL
same,MIC,[3]; [13],10 µg/mL
same,MIC,[4],4000 µg/mL
same,activity at 10 µM,"[7]; Homo sapiens, Caco-2, material conc. 10 uM, TER barrier function recovery, 24 h, read-out: Recovery ratio (%)",135%
same,Recovery ratio/ctr,[7]; [20],1.17
same,MIC,Escherichia coli MG1665; [14],> 100 mg/mL
same,MIC,[5]; [15],1000 µg/mL
same,MIC,[6],> 100 mg/mL
same,MIC,[9]; [31],4000 µg/mL
"CC1=C(/C=C/C(C)=C/C=C/C(C)=C/C=C/C=C(C)/C=C/C=C(C)/C=C/C2=C(C)C(=O)[C@@H](O)CC2(C)C)C(C)(C)C[C@H](O)C1=O [Astaxanthin, astaxanthin]",activity at 10 µg/mL,"[7]; Homo sapiens, Caco-2, material conc. 10 mg/L, TER barrier function recovery, 24 h, read-out: Recovery ratio (%)",132%
same,Recovery ratio/ctr,"[7]; material conc. 10 mg/L, comparison value with Ctr (TNFα alone), 24 h",1.14
same,function of strengthening the barrier function (membrane-strengthening ability),[7],observed to have the function of strengthening the barrier function
